Patent publication US6627732B1, “Glutathione derivatives and their dosage forms” (Teijin Limited, priority 1998, dated 2003)

What was measured:
[1] = Pharmacokinetics after intravenous administration to rabbits, 2-compartment model (Example 25); type: in vivo, rabbit; details: iv auricular vein 2 ml/kg, fat emulsion (Comparative Ex. 1: HPCD/glucose solution)
Source text: For the glutathione derivative of the present invention having a long-chain ester having 12 carbons or more and the glutathione derivatives of the conventional technology of Comparative Examples 1 and 2, kinetics in the blood were compared in rabbits that are a species having allow esterase activity in the blood.
(1) Male Japanese white rabbits, 12-week old or older, were purchased from Ichikawaya, and those rabbits that became 15-week old or older and whose body weight reached about 3 kg were used for the experiment. During the period up to the experiment, the animals were allowed free access to the animal feed and drinking water and were kept at a temperature of 24±2° C. and a humidity of 55±5%.
(2) The glutathione derivative having a long-chain ester of 12 carbons or more and the glutathione derivative of Comparative Example 2 were prepared at 20-200 mg/ml in a mixture of ethanol or ethanol:benzyl alcohol, which was mixed with the fat emulsion just prior to use, and was filtered with a 1.2 μm filter to obtain a liquid for intravenous administration. On the other hand, the glutathione derivative of Comparative Example 1 was dissolved in an aqueous solution of 6%-hydroxypropyl-β-cyclodextrin/5%-glucose at 15 mg/ml to obtain an administration liquid.
(3) The administration liquid of the glutathione derivative obtained in (2) at a dose of 2 ml/kg was rapidly infused into the left auricular vein of the rabbits under no anesthesia and under restraint at a rate of 1 ml/min. Each glutathione derivative was given to three or more rabbits. At 5, 10, 15, 30, 60, 120, and 240 minutes after the completion of the administration, 1 ml of the blood was drawn from the right auricular vein in the presence of heparin, which was immediately cooled on ice. Plasma was obtained by centrifuging the blood, 1-2 volume parts of acetonitrile was added to deproteinize the supernatant, which was filtered by a 0.5 μm filter. The supernatant of the filtrate was quantitated by HPLC.

[2] = tested on: rat models of suppressed hematopoietic function by 5-FU administration; experiment: Recovery of neutrophil counts in rat models of suppressed hematopoietic function by 5-FU (Example 26); type: in vivo; details: 5-FU rats, days 2-10
Source text: Regarding the effect of promoting the recovery of neutrophil counts in rat models of suppressed hematopoietic function by 5-fuluorouracil administration, statistical significance was compared to the control group to compare the pharmaceutical composition containing Example 4 of the present invention as an active ingredient with the pharmaceutical composition of the conventional technology of Comparative Example 1 and granulocyte colony-stimulating factor (G-CSF).
(1) Animals used and the keeping condition: Male SD rats, 6-week old, purchased from Nippon SLC were used. The animal feed (manufactured by Oriental Yeast Co., Ltd.) and drinking water (well water treated with 0.4±0.2 ppm hypochlorous acid) were given ad libitum during the period of the experiment. The animals were housed in a hanging-type rat cage (manufactured by Nippon Cage K.K.) and kept at a temperature of 24±2° C. and a humidity of 55±5%.
(2) Creation of rat models of suppressed hematopoietic function by 5-FU administration; Creation of rat models of suppressed hematopoietic function by 5-FU (Kyowa Hakko Kogyo Co. Ltd.) administration was carried out based on the method of Akamatsu et al. (Yakuri to Chiryo(Pharmacology and Therapy), 18. (Suppl. 9), 317-356 (1990)). Thus, on the first day of the experiment, 5-FU at 50 mg/kg-body weight (dosage volume is 1 ml/kg-body weight) or the same amount of physiological saline (manufactured by Fuso Pharmaceuticals Industries, Ltd.) was intraperitoneally administered to the rats described in (1). On days 4, and 7-12, blood was drawn from the jugular vein and the EDTA-2K-treated blood was obtained. The blood was used to determine the neutrophil count using a general chemistry test instrument (Technicon H-1E, manufactured by Bayer-Sankyo K.K.) and the ratio of reticulocytes using a reticulocyte determination instrument (EPICS, XL-MCL, manufactured by Coulter K.K.). Blood was also drawn on day 1 of the experiment, and the values determined for the blood were used as the pre-administration values.
In the physiological saline administration group, no changes in neutrophil count were observed throughout the experiment period, whereas in the 5-FU administration group there was a reduction in neutrophil count with the lowest value observed on day 8 of the experiment, and the neutrophil count was recovered to the value before 5-FU administration or higher on day 10 of the experiment or after. The above results confirmed that rat models of suppressed hematopoietic function can be created by a single intraperitoneal administration of 5-FU at 50 mg/kg-body weight.
(3) Evaluation of Example 4 and Comparative Example 1 in the above model; To the model described in (2), the glutathione derivative of Example 4 combined with the fat emulsion at 10 to 30 mg/kg-body weight/day or the glutathione derivative of Comparative Example 1 dissolved in a physiological saline containing 2.5% hydroxypropyl-β-cyclodextrin at 50 mg/kg-body weight/day was repeatedly administered into the tail vein for 9 days from day 2 to 10 of the experiment. The recombinant human G-CSF formulation (hereinafter referred to as G-CSF, manufactured by Chugai Pharmaceutical Co., Ltd.) as the positive control at 10 μg/kg-body weight/day and the empty fat emulsion as the negative control were administered in a similar manner. […]

[3] = tested on: rabbit liver esterase; experiment: Decomposition of glutathione derivatives by rabbit liver esterase (physiological stability); type: in vitro ADME; details: BSA/D-PBS pH 7.4, 196-244 μg/ml
Procedure: (1) Bovine serum albumin (hereinafter referred to as BSA), Dulbecco's phosphate buffered saline (hereinafter referred to as D-PBS), swine liver esterase, and rabbit liver esterase were purchased from Sigma, 6-week old male SD rats were purchased from Nippon SLC, and 12-week old or older male Japanese white rabbits were purchased from Ichikawaya. On the day of the incubation experiment described below, blood was drawn from the animals in the presence of heparin, and plasma was separated therefrom for use. Human plasma was obtained from normal healthy males after obtaining their consent.
(2) The glutathione derivatives described in the Examples and Comparative Examples of the present invention were incubated for a fixed time in an enzyme solution having the following composition. Acetonitrile was added to the reaction mixture to inactivate the enzyme thereby to stop the reaction. The concentration of the glutathione derivatives in the deproteinized supernatant was measured by HPLC. For each time point of the esterase enzyme experiment, the mean values from two measurement or more were determined, and for the rats and rabbits the mean values of plasma samples from three individuals were determined. For some of the experiment data, changes with time of percentages relative to initial concentration of the glutathione derivative are shown in FIGS. 2 to 4.
Swine liver esterase and rabbit liver esterase experiment
30 mg-BSA/ml-D-PBS (pH 7.4): 36 to 45 parts
Swine or rabbit liver esterase/D-PBS: 4-5 parts
10 mg-glutathione derivative/ml-ethanol: one part (the final concentration in the reaction mixture is 196-244 μg/ml)

Row | Decomposition rate constant by rabbit liver esterase [3] | Structure (SMILES) | Clearance per body weight [1] [mL/min/kg] | Distribution volume per body weight of the central compartment [1] [L/kg] | Neutrophil counts relative to the negative control group ([2]; HPCD solution 50 mg/kg-body weight/day iv, significant (5%) on day 12 only) | Neutrophil counts relative to the negative control group ([2]; fat emulsion 10 mg/kg-body weight/day iv) | Neutrophil counts relative to the negative control group ([2]; fat emulsion 20 mg/kg-body weight/day iv, days 9 to 11, significance 1% to 0.1%) | Neutrophil counts relative to the negative control group ([2]; fat emulsion 30 mg/kg-body weight/day iv, from day 8, significance 5%-0.1%)
1 | – | CCOC(=O)[C@@H](N)CCC(=O)N[C@@H](CSCc1ccccc1)C(=O)N[C@@H](C(=O)OCC)c1ccccc1.Cl [Comparative Example 1, Glu(Cys(Bzl)-D-Phg-O(Et))-O(Et)hydrochloride, reference compound] | 254.5 | 0.80 | no changes were observed compared to the negative control group | – | – | –
2 | 267 10^−4/unit/min | CCCCCCCCOC(=O)[C@H](NC(=O)[C@H](CSCc1ccccc1)NC(=O)CC[C@H](N)C(=O)OCC)c1ccccc1.Cl [Comparative Example 2, Glu(Cys(Bzl)-D-Phg-O(Octyl))-O(Et)hydrochloride, reference compound] | 156 | 4.18 | – | – | – | –
3 | 0.836 10^−4/unit/min | CCCCCCCCCCCCCCCCOC(=O)[C@@H](N)CCC(=O)N[C@@H](CSCc1ccccc1)C(=O)N[C@@H](C(=O)OCC)c1ccccc1.Cl [Example 4, Glu(Cys(Bzl)-D-Phg-OEt)-O(Hexadecyl)hydrochloride] | 3.33 | 0.06 | – | No changes were observed | statistically significant increase | statistically significant increase
